Data as given in patent publication US5374618A, “Calcitonin peptides, and gene related pharmaceutical compositions” (Celltech Limited, priority 1983, dated 1994).
One block for each compound: values may come before it.

Experiments:
[1] = test system: antibody raised against Tyr-(CGRP amino acids 25-37)-amide; experiment: Radioimmunoassay cross-reactivity with 125I-Tyr-(CGRP amino acids 25-37)-amide tracer; type: binding, rabbit; conditions: 1:12500 dilution of serum, 1800 cpm tracer, 400 μl assay
Method: Cells from a 500 ml culture were harvested and lysed in a lysozyme/sodium deoxycholate mixture (5 ml), then treated with DNase for 30 mins. at 5° C. (Emtage J. S. et al PNAS (1983), 80, p 3671-3675). […] Radioimmunoassay was carried out in 0.05M phosphate buffer pH 7.4 in a final volume of 400 ul (see Girgis, S. I. et al J. Endocrinol 78, 372-382). Antiserum was raised in rabbits, using the known techniques, against Tyr-(CGRP amino acids 25-37)-amide and conjugated to chick ovalbumin (Reichlin, M.1980, Meth.Enzymol 70 159-165) and against ^125 I Tyr-(CGRP amino acids 25-37)-amide tracer.
The tracer was iodinated using the Chloramine T method of Hunter and Greenwood.

[2] = test system: pentobarbitone anaesthetised rat; experiment: Cardiovascular actions (mean arterial pressure, heart rate) after i.v. administration in anaesthetised rats; type: in vivo
Method: Groups of 4 to 6 male Sprague-Dawley rats (285-315 g) were anaesthetised with sodium pentobarbitone (60 mg Kg^-1 i.p.). The trachea, left carotid artery and left jugular vein were cannulated. Blood pressure was recorded from the carotid artery on a Grass polygraph via a Statham P23 ID pressure transducer and mean arterial pressure derived from the trace. Heart rate was measured by a tachograph (Grass model 7P4) triggered by the blood pressure signal. […] Purified rat CGRP was from the same source. All synthetic preparations were subject to mass spectrometry (M-Scan Ltd.) to confirm structure and purity before use. […] All compounds were administered intravenously except for mepyramine (s.c.). […] The peak fall in mean arterial pressure (MAP) and heart rate (HR) after 2 min was measured.
The mechanism of action of PDA-4 was not examined.

[3] = test system: guinea-pig right atrial preparation; experiment: Rate and force of contraction of isolated guinea-pig right atrium; type: cell-based
Method: Male Dunkin Hartley guinea-pigs (280-400 g) were killed by cervical dislocation and exsanguinated. The heart was removed, the right atrium dissected out and mounted under 0.5 g tension in Krebs solution (mM): NaCl 118, KCl 4.7, CaCl2 2.5, KH2 PO4 1.18, NaHCO3 25, MgSO4 1.18 and glucose 11.1, at 34° C. bubbled with 95:5 02 :CO2. Atrial force and rate were measured isometrically by a Grass FT.03 transducer and recorded on a Grass polygraph. Single doses of either human or rat CGRP were given in a random order.

[4] = cumulative doses at 2 min intervals, anaesthetised rat

cross-reaction with the antibody (displacement of tracer) [1]: does not cross-react
Compound: CC(C)C[C@H](NC(=O)[C@H](CCCCN)NC(=O)CNC(=O)[C@H](CC(C)C)NC(=O)[C@@H](NC(=O)[C@@H]1CSSC[C@H](N)C(=O)N[C@@H](CO)C(=O)N[C@@H](CC(N)=O)C(=O)N[C@@H](CC(C)C)C(=O)N[C@@H](CO)C(=O)N[C@@H]([C@@H](C)O)C(=O)N1)C(C)C)C(=O)N[C@@H](CO)C(=O)N[C@@H](CCC(N)=O)C(=O)N[C@@H](CCC(=O)O)C(=O)N[C@@H](CC(C)C)C(=O)N[C@@H](Cc1c[nH]cn1)C(=O)N[C@@H](CCCCN)C(=O)N[C@@H](CC(C)C)C(=O)N[C@@H](CCC(N)=O)C(=O)N[C@H](C(=O)N[C@@H](Cc1ccc(O)cc1)C(=O)N1CCC[C@H]1C(=O)N[C@@H](CCCNC(=N)N)C(=O)N[C@H](C(=O)N[C@@H](CC(N)=O)C(=O)N[C@H](C(=O)NCC(=O)N[C@@H](CO)C(=O)NCC(=O)N[C@H](C(=O)N1CCC[C@H]1C(N)=O)[C@@H](C)O)[C@@H](C)O)[C@@H](C)O)[C@@H](C)O [salmon calcitonin]

cross-reaction with the antibody (displacement of tracer) [1]: does not cross-react
Compound: Tyr-CGRP (amino acids 1-8): tyrosinated fragment of human CGRP, amino acids 1 to 8 (ACDTATCV; Calcitonin gene-related peptide 1 N-terminal tyrosine added; UniProt P06881 83-90, looked up, fragment)

cross-reaction with the antibody (displacement of tracer) [1]: does not cross-react
Compound: human calcitonin: human calcitonin, tested for cross-reaction in the radioimmunoassay

cross-reaction with the antibody (displacement of tracer) [1]: does not cross-react
Compound: katacalcin: carboxy terminal peptide designated PDN-21 (Katacalcin) of the human calcitonin polyprotein (DMSSDLERDHRPHVSMPQNAN; Katacalcin; UniProt P01258 121-141, looked up)

cross-reaction with the antibody (displacement of tracer) [1]: recognises antigenic determinants
Compound: rat CGRP: synthetic rat CGRP preparation from Peninsula Laboratories
fall in mean arterial pressure (MAP) [2, 4]: dose-dependent fall in MAP
increase in heart rate (HR) [2, 4]: increase in HR
dose representing a 50% decrease in blood pressure ([2]; pentobarbitone anaesthetised rat): 0.23 nmol/kg
potency relative to human CGRP at increasing rate (times more potent) ([3]; isolated right atrium): approximately 10 times
potency relative to human CGRP in evoking increases in force ([3]; isolated right atrium): equipotent
increase in rate or force in presence of propranolol ([3]; propranolol): Neither the increase in rate or force produced by rat CGRP was blocked
